Legend:
[1] = biological target: P300 (Homo sapiens, UniProt Q09472); assay: Immunoblotting of P300 protein levels in LNCaP or 22RV1 cells; assay type: cell-based; parameters: LNCaP or 22RV1 cells that express CBP/P300 proteins were treated with GNE-781 or the bivalent compounds; endogenous in cells; host or cells: LNCaP (clone FGC) or 22RV1 cells; conditions: percentage of inhibition of p300 at 10 nM (Table 3); read-out: Degradation (10 nM)
Outline: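 P300/CBP levels quantified by chemiluminescent immunoblot band densitometry, normalized against tubulin or vinculin loading controls. Lysates came from LNCaP or 22RV1 cells exposed to compounds or DMSO vehicle for indicated times.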

[2] = test system: LNCaP cells; assay: LNCaP cell viability assay (CellTiter-Glo); assay type: cell-based; conditions: Homo sapiens, 72 h; LNCaP prostate cancer cell viability inhibition, 3 days, CellTiter-Glo (Table 3)
Outline: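 Three-day treatment of LNCaP cells (5000 per well) across a 12-point, 3-fold dilution series starting at 10 μM. ATP luminescence (CellTiter-Glo) relative to untreated controls gave dose-response curves fitted nonlinearly for IC50.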

P300, sequence (Q09472 whole entry): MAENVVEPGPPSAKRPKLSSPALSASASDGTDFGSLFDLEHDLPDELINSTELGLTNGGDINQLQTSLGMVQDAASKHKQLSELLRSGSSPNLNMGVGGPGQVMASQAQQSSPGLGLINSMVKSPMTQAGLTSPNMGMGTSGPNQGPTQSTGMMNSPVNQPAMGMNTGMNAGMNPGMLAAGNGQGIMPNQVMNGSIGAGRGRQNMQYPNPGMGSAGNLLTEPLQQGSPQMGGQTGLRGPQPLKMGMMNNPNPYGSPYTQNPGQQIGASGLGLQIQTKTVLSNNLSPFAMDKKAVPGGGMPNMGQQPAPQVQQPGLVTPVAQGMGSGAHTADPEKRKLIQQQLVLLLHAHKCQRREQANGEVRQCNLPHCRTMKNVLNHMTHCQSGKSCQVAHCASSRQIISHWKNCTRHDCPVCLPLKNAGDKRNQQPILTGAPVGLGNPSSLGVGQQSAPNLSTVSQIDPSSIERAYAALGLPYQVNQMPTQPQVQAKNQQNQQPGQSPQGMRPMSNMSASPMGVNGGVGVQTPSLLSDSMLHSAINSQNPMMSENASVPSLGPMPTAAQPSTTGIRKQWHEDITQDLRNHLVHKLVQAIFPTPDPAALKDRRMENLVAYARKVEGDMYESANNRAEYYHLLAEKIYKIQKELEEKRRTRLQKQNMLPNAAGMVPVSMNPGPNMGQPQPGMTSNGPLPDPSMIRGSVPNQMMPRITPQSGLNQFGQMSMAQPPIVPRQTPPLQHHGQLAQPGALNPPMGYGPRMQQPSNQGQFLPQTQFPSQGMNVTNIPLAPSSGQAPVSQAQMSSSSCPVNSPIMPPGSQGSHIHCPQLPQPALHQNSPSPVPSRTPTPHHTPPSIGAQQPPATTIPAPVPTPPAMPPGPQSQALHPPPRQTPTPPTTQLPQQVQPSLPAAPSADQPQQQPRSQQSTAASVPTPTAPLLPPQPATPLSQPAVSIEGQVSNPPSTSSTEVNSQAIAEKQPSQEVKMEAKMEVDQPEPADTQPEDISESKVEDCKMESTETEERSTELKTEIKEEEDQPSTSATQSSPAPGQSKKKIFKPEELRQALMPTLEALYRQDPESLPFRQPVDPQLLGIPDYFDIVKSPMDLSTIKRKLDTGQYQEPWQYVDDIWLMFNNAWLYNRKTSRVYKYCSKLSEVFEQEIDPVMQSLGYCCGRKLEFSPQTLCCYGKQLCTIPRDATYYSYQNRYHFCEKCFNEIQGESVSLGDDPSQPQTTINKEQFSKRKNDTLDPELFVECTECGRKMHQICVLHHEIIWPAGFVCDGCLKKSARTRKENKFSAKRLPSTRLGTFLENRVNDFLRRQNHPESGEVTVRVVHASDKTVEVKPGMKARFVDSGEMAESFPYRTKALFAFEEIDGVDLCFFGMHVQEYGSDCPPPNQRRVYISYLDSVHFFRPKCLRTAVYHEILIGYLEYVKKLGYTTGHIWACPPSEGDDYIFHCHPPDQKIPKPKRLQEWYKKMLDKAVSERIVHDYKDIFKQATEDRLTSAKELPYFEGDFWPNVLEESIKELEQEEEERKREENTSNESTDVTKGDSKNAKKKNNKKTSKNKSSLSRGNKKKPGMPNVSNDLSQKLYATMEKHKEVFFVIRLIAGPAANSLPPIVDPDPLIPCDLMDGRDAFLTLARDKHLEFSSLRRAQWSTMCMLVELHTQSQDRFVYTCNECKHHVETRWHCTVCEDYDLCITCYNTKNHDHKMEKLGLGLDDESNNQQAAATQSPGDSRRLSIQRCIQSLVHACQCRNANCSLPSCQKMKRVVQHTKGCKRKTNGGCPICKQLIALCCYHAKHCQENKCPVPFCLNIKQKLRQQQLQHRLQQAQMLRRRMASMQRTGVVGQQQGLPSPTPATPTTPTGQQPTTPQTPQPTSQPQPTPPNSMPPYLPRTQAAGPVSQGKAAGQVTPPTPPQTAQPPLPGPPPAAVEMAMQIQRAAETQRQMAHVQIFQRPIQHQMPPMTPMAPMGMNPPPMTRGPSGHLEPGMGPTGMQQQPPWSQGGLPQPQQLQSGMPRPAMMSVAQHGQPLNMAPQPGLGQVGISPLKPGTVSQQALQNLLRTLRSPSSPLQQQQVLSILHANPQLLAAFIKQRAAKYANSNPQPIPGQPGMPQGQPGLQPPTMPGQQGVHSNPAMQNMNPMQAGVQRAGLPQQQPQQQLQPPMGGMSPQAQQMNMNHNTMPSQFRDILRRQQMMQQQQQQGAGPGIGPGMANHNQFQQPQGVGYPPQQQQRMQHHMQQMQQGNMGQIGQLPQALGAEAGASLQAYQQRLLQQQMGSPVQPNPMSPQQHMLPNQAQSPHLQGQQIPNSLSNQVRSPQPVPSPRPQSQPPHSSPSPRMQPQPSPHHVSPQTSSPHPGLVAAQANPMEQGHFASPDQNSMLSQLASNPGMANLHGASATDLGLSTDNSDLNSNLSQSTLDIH

Compound: CC(=O)N1CCc2c(c(N3CCCc4cc(-c5cnn(C)c5)c(C(F)F)cc43)nn2C2CCN(C(=O)CCCC3CN(c4cccc5c4C(=O)N(C4CCC(=O)NC4=O)C5=O)C3)CC2)C1 (stereo not drawn) [P-146, 4-(3-(4-(4-(5-acetyl-3-(7-(difluoromethyl)-6-(1-methyl-1H-pyrazol-4-yl)-3,4-dihydroquinolin-1(2H)-yl)-4,5,6,7-tetrahydro-1H-pyrazolo[4,3-c]pyridin-1-yl)piperidin-1-yl)-4-oxobutyl)azetidin-1-yl)-2-(2,6-dioxopiperidin-3-yl)isoindoline-1,3-dione]
- inhibition at 0.01 µM [1]: > 80%
- IC50 [2]: 0.002 µM

Compound: CC(=O)N1CCc2c(c(N3CCCc4cc(-c5cnn(C)c5)c(C(F)F)cc43)nn2C2CCN(C(=O)CN3CCC(CCCc4cccc5c4C(=O)N(C4CCC(=O)NC4=O)C5=O)CC3)CC2)C1 (stereo not drawn) [P-147, 4-(3-(1-(2-(4-(5-acetyl-3-(7-(difluoromethyl)-6-(1-methyl-1H-pyrazol-4-yl)-3,4-dihydroquinolin-1(2H)-yl)-4,5,6,7-tetrahydro-1H-pyrazolo[4,3-c]pyridin-1-yl)piperidin-1-yl)-2-oxoethyl)piperidin-4-yl)propyl)-2-(2,6-dioxopiperidin-3-yl)isoindoline-1,3-dione]
- inhibition at 0.01 µM [1]: > 80%
- IC50 [2]: 0.0014 µM

Compound: CC(=O)N1CCc2c(c(N3CCCc4cc(-c5cnn(C)c5)c(C(F)F)cc43)nn2C2CCN(C(=O)CCN3CCC(CCc4cccc5c4C(=O)N(C4CCC(=O)NC4=O)C5=O)CC3)CC2)C1 (stereo not drawn) [P-148, 4-(2-(1-(3-(4-(5-acetyl-3-(7-(difluoromethyl)-6-(1-methyl-1H-pyrazol-4-yl)-3,4-dihydroquinolin-1(2H)-yl)-4,5,6,7-tetrahydro-1H-pyrazolo[4,3-c]pyridin-1-yl)piperidin-1-yl)-3-oxopropyl)piperidin-4-yl)ethyl)-2-(2,6-dioxopiperidin-3-yl)isoindoline-1,3-dione]
- inhibition at 0.01 µM [1]: > 80%
- IC50 [2]: 0.0733 µM

Compound: CC(=O)N1CCc2c(c(N3CCCc4cc(-c5cnn(C)c5)c(C(F)F)cc43)nn2C2CCN(CC3CCN(CCCc4cccc5c4C(=O)N(C4CCC(=O)NC4=O)C5=O)CC3)CC2)C1 (stereo not drawn) [P-149, 4-(3-(4-((4-(5-acetyl-3-(7-(difluoromethyl)-6-(1-methyl-1H-pyrazol-4-yl)-3,4-dihydroquinolin-1(2H)-yl)-4,5,6,7-tetrahydro-1H-pyrazolo[4,3-c]pyridin-1-yl)piperidin-1-yl)methyl)piperidin-1-yl)propyl)-2-(2,6-dioxopiperidin-3-yl)isoindoline-1,3-dione]
- inhibition at 0.01 µM [1]: > 80%
- IC50 [2]: 0.0114 µM

Compound: CC(=O)N1CCc2c(c(N3CCCc4cc(-c5cnn(C)c5)c(C(F)F)cc43)nn2C2CCN(CC3CCN(CC#Cc4cccc5c4C(=O)N(C4CCC(=O)NC4=O)C5=O)CC3)CC2)C1 (stereo not drawn) [P-150, 4-(3-(4-((4-(5-Acetyl-3-(7-(difluoromethyl)-6-(1-methyl-1H-pyrazol-4-yl)-3,4-dihydroquinolin-1(2H)-yl)-4,5,6,7-tetrahydro-1H-pyrazolo[4,3-c]pyridin-1-yl)piperidin-1-yl)methyl)piperidin-1-yl)prop-1-yn-1-yl)-2-(2,6-dioxopiperidin-3-yl)isoindoline-1,3-dione]
- inhibition at 0.01 µM [1]: > 80%
- IC50 [2]: 0.191 µM

Compound: CC(=O)N1CCc2c(c(N3CCCc4cc(-c5cnn(C)c5)c(C(F)F)cc43)nn2C2CCN(C(=O)CCCCCNc3cccc4nnn(C5CCC(=O)NC5=O)c(=O)c34)CC2)C1 (stereo not drawn) [P-151, 3-(5-((6-(4-(5-acetyl-3-(7-(difluoromethyl)-6-(1-methyl-1H-pyrazol-4-yl)-3,4-dihydroquinolin-1(2H)-yl)-4,5,6,7-tetrahydro-1H-pyrazolo[4,3-c]pyridin-1-yl)piperidin-1-yl)-6-oxohexyl)amino)-4-oxobenzo[d][1,2,3]triazin-3(4H)-yl)piperidine-2,6-dione]
- inhibition at 0.01 µM [1]: > 80%
- IC50 [2]: 0.0075 µM

Compound: CC(=O)N1CCc2c(c(N3CCCc4cc(-c5cnn(C)c5)c(C(F)F)cc43)nn2C2CCN(C(=O)CCCCCCNc3cccc4nc(C)n(C5CCC(=O)NC5=O)c(=O)c34)CC2)C1 (stereo not drawn) [P-152, 3-(5-((7-(4-(5-Acetyl-3-(7-(difluoromethyl)-6-(1-methyl-1H-pyrazol-4-yl)-3,4-dihydroquinolin-1(2H)-yl)-4,5,6,7-tetrahydro-1H-pyrazolo[4,3-c]pyridin-1-yl)piperidin-1-yl)-7-oxoheptyl)amino)-2-methyl-4-oxoquinazolin-3(4H)-yl)piperidine-2,6-dione]
- inhibition at 0.01 µM [1]: < 20%
- IC50 [2]: 0.169 µM

Compound: CC(=O)N1CCc2c(c(N3CCCc4cc(-c5cnn(C)c5)c(C(F)F)cc43)nn2C2CCN(C(=O)CCCCCCNc3cccc4nnn(C5CCC(=O)NC5=O)c(=O)c34)CC2)C1 (stereo not drawn) [P-153, 3-(5-((7-(4-(5-acetyl-3-(7-(difluoromethyl)-6-(1-methyl-1H-pyrazol-4-yl)-3,4-dihydroquinolin-1(2H)-yl)-4,5,6,7-tetrahydro-1H-pyrazolo[4,3-c]pyridin-1-yl)piperidin-1-yl)-7-oxoheptyl)amino)-4-oxobenzo[d] [1,2,3]triazin-3 (4H)-yl)piperidine-2,6-dione]
- inhibition at 0.01 µM [1]: > 80%
- IC50 [2]: 0.0037 µM

Compound: CC(=O)N1CCc2c(c(N3CCCc4cc(-c5cnn(C)c5)c(C(F)F)cc43)nn2C2CCN(C(=O)CCCCNc3cccc4nc(C)n(C5CCC(=O)NC5=O)c(=O)c34)CC2)C1 (stereo not drawn) [P-154, 3-(5-((5-(4-(5-Acetyl-3-(7-(difluoromethyl)-6-(1-methyl-1H-pyrazol-4-yl)-3,4-dihydroquinolin-1(2H)-yl)-4,5,6,7-tetrahydro-1H-pyrazolo[4,3-c]pyridin-1-yl)piperidin-1-yl)-5-oxopentyl)amino)-2-methyl-4-oxoquinazolin-3(4H)-yl)piperidine-2,6-dione]
- inhibition at 0.01 µM [1]: 20 to 50%
- IC50 [2]: > 1 µM

Compound: CC(=O)N1CCc2c(c(N3CCCc4cc(-c5cnn(C)c5)c(C(F)F)cc43)nn2C2CCN(C(=O)CCCCNc3cccc4nnn(C5CCC(=O)NC5=O)c(=O)c34)CC2)C1 (stereo not drawn) [P-155, 3-(5-((5-(4-(5-acetyl-3-(7-(difluoromethyl)-6-(1-methyl-1H-pyrazol-4-yl)-3,4-dihydroquinolin-1(2H)-yl)-4,5,6,7-tetrahydro-1H-pyrazolo[4,3-c]pyridin-1-yl)piperidin-1-yl)-5-oxopentyl)amino)-4-oxobenzo[d][1,2,3]triazin-3(4H)-yl)piperidine-2,6-dione]
- inhibition at 0.01 µM [1]: 50 to 80%
- IC50 [2]: 0.0223 µM

Compound: CC(=O)N1CCc2c(c(N3CCCc4cc(-c5cnn(C)c5)c(C(F)F)cc43)nn2C2CCN(C(=O)CCC3CN(Cc4cccc5c4C(=O)N(C4CCC(=O)NC4=O)C5=O)C3)CC2)C1 (stereo not drawn) [P-156, 4-((3-(3-(4-(5-Acetyl-3-(7-(difluoromethyl)-6-(1-methyl-1H-pyrazol-4-yl)-3,4-dihydroquinolin-1(2H)-yl)-4,5,6,7-tetrahydro-1H-pyrazolo[4,3-c]pyridin-1-yl)piperidin-1-yl)-3-oxopropyl)azetidin-1-yl)methyl)-2-(2,6-dioxopiperidin-3-yl)isoindoline-1,3-dione]
- inhibition at 0.01 µM [1]: < 20%
- IC50 [2]: > 0.5 µM

Compound: CC(=O)N1CCc2c(c(N3CCCc4cc(-c5cnn(C)c5)c(C(F)F)cc43)nn2C2CCN(CCN3CCC(CCc4cccc5c4C(=O)N(C4CCC(=O)NC4=O)C5=O)CC3)CC2)C1 (stereo not drawn) [P-157, 4-(2-(1-(2-(4-(5-acetyl-3-(7-(difluoromethyl)-6-(1-methyl-1H-pyrazol-4-yl)-3,4-dihydroquinolin-1(2H)-yl)-4,5,6,7-tetrahydro-1H-pyrazolo[4,3-c]pyridin-1-yl)piperidin-1-yl)ethyl)piperidin-4-yl)ethyl)-2-(2,6-dioxopiperidin-3-yl)isoindoline-1,3-dione]
- inhibition at 0.01 µM [1]: 50 to 80%
- IC50 [2]: 0.0032 µM

Source: US20230073777A1, “CYCLIC-AMP RESPONSE ELEMENT BINDING PROTEIN (CBP) AND/OR ADENOVIRAL E1A BINDING PROTEIN OF 300 KDA (P300) DEGRADATION COMPOUNDS AND METHODS OF USE” (CULLGEN (SHANGHAI), INC., priority 2019, published 2023)
